Reference: paper PMC9122903, “First purified recombinant CYP75B including transmembrane helix with unexpected high substrate specificity to (2R)-naringenin” (Scientific Reports, 2022)

Legend:
Experiment in all cases: hydroxylation, product quantified by HPLC-DAD ([…] nm)
Type in all cases: biochemical, Dahlia pinnata
Settings in all cases: 1.55 mM NADPH, CrCPR microsomes, pH 7.5, 30 °C
[1] = test system: T1, DvCH3H (chalcone 3-hydroxylase)
T1 construct: gene CH3H; assayed with yeast microsomes containing recombinant Catharanthus roseus CPR (GenBank X69791.1); with NADPH--cytochrome P450 reductase (Catharanthus roseus)

[2] = test system: T1, DvCH3H (chalcone 3-hydroxylase); remark: listed apart in the source
[3] = test system: T1, DvCH3H (chalcone 3-hydroxylase); remark: listed apart in the source

## O=c1c(O)c(-c2ccc(O)cc2)oc2cc(O)cc(O)c12 [Kaempferol]
[1]
  Km: 0.622 ± 0.069 µM

## O=C1CC(c2ccc(O)cc2)Oc2cc(O)cc(O)c21 (racemic) [Racemic Naringenin]
[2]; racemic mixture
  Km: 0.402 ± 0.046 µM

## O=C1C[C@H](c2ccc(O)cc2)Oc2cc(O)cc(O)c21 [(2R)-Naringenin]
[2]
  Km: 0.408 ± 0.015 µM

## O=c1cc(-c2ccc(O)cc2)oc2cc(O)cc(O)c12 [Apigenin]
[3]
  Km: 0.329 ± 0.007 µM

## O=C1C[C@@H](c2ccc(O)cc2)Oc2cc(O)cc(O)c21 [(2S)-Naringenin]
[2]
  Km: 0.76 ± 0.094 µM
